Test results published in patent publication US9200046B2, “Reporter system for high throughput screening of compounds and uses thereof” (priority 2011, dated 2015).
Counter-ions that a name gives are not always drawn. Like-named read-outs stand apart in the source and are kept apart here.

Biological target: Nrf2-Keap1 complex (Homo sapiens, UniProt Q14145)
Assay: cell-based
Assay type: cell-based
Details: for activation at 16 µM / activation at 32 µM: 3 h; for activation at 16 µM: read-out: Activation 100 nL; for activation at 32 µM: read-out: Activation 200 nL
[1] = Table 2, 100 nL compound, screen run at 16 and 32 μM, 3 hr
[2] = Table 2, 200 nL compound, screen run at 16 and 32 μM, 3 hr
[3] = Table 1A, 100 nL compound, screen run at 16 and 32 μM, 3 hr
[4] = Table 1A, 200 nL compound, screen run at 16 and 32 μM, 3 hr

Nrf2-Keap1 complex, sequence (Q14145 whole entry, one chain of several): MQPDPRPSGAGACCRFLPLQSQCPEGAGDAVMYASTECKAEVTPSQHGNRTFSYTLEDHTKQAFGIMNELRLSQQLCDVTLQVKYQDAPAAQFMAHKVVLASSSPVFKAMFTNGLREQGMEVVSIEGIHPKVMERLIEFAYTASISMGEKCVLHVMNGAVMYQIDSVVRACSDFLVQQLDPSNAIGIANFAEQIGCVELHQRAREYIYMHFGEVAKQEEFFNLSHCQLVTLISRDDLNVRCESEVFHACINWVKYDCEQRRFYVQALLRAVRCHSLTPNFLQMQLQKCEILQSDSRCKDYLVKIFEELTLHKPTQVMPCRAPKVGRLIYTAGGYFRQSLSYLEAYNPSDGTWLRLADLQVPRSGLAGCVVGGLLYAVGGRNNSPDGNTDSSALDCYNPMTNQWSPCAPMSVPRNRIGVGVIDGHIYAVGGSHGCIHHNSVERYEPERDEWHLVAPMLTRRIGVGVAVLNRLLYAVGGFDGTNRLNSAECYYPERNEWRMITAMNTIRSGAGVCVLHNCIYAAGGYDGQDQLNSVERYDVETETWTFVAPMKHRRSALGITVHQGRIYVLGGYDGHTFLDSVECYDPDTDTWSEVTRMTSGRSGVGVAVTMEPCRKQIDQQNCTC

Compound | Activation 100 nL | Activation 200 nL | 100 nL (luminescence) [1] | 200 nL (luminescence) [2] | Neh2-luc reporter activation | activation at 16 µM | activation at 32 µM | 100 nL (luminescence) [3] | 200 nL (luminescence) [4] | 100 nL (luminescence) | 200 nL (luminescence)
CC(=O)O[C@H]1CCC2(C)C3=C(CCC2C1(C)C)[C@@]1(C)CC[C@@H](C(C)CCC=C(C)C)[C@]1(C)CC3 (stereo partly shown) [EUPHOLACETATE] | 89% | 111% | 1710 | 2020 | – | – | – | – | – | – | –
CC1=C(CC(=O)O)c2cc(F)ccc2/C1=C\c1ccc([S+](C)[O-])cc1 (stereo not shown) [reference compound] | – | – | – | – | 200% | 114% | 188% | 2692 | 2710 | – | –
COc1cc(O)c(C(=O)/C=C/c2ccc(OC)c(O)c2)c(OC)c1 [2′,3-DIHYDROXY-4,4′,6′-TRIMETHOXYCHALCONE] | – | – | 5436 | 544 | – | 296% | 10% | – | – | – | –
CC(=O)Oc1cc(-c2coc3cc(OC(C)=O)c(OC(C)=O)c(OC(C)=O)c3c2=O)cc(OC(C)=O)c1OC(C)=O [IRIGINOLHEXAACEATATE] | – | – | 1350 | 1208 | – | 65% | 58% | – | – | – | –
COc1cc2c(c(OC)c1OC)-c1ccc(=O)c(O)cc1[C@@H](NC(C)=O)CC2 [COLCHICEINE] | – | – | 672 | 584 | – | 35% | 11% | – | – | – | –
CCCCCCCCCCCCCCCc1ccco1 [AVOCADANOFURAN] | 59% | 32% | 880 | 1088 | – | – | – | – | – | – | –
C[C@]12CCC(=O)C=C1C=C[C@@H]1[C@@H]2CC[C@@]2(C)[C@H]1CC[C@@]21CCC(=O)O1 [CANRENONE, reference compound] | – | – | – | – | – | 25% | 23% | – | – | 900 | 832
[…](CAPE) | 245% | −14% | 2508 | 16 | – | – | – | – | – | – | –
CC(C)c1ccc2c(c1O)CC[C@H]1C3=C(CC[C@]21C)C(=O)OC3 [TRIPTOPHENOLIDE] | – | – | 832 | 390 | – | 35% | -3% | – | – | – | –
NCCCCNCCCN [SPERMIDINETRIHYDROCHLORIDE] | – | – | 1000 | 860 | – | 72% | 22% | – | – | – | –
O=C1C=CC(=O)c2c(O)cccc21 [JUGLONE] | – | – | – | – | – | 58% | 95% | – | – | – | –
COc1cc(OC)c2c(=O)c(O)c(-c3ccc(OC)c(OC)c3)oc2c1 | 29% | 8% | 760 | 644 | – | – | – | – | – | – | –
O=C(O)c1cc(O)c2c(c1)[C@@H]([C@H]1c3cc(C(=O)O)cc(O)c3C(=O)c3c(O[C@H]4O[C@H](CO)[C@@H](O)[C@H](O)[C@H]4O)cccc31)c1cccc(O[C@H]3O[C@H](CO)[C@@H](O)[C@H](O)[C@H]3O)c1C2=O [SENNOSIDEA, reference compound] | – | – | – | – | – | 141% | -24% | – | – | 3204 | 4
NC(=O)c1ccc(N)nc1 [6-AMINONICOTINAMIDE] | – | – | – | – | – | 26% | 1% | 756 | 344 | – | –
COc1c(O)cc2oc3cc(O)c(CC=C(C)C)c(O)c3c(=O)c2c1CC=C(C)C [alpha-MANGOSTIN] | 28% | −19% | – | – | – | – | – | – | – | 736 | 16
NCCc1cc(O)c(O)cc1O [OXIDOPAMINEHYDROCHLORIDE] | – | – | 1676 | 2936 | – | 107% | 124% | – | – | – | –
O=C(/C=C/c1ccccc1)c1ccc(O[C@@H]2O[C@H](CO)[C@@H](O)[C@H](O)[C@H]2O)cc1O [2′,4′-DIHYDROXYCHALCONE4′-GLUCOSIDE] | 33% | 121% | 1056 | 2592 | – | – | – | – | – | – | –
